The text below walks through data of patent US5140039A, “Aminomethyl-thiochroman compounds” (Abbott Laboratories, priority 1991, dated 1992).

Counter-ions that a name gives are not always drawn.

The target in one experiment is T1, alpha-1-receptor (Rattus norvegicus, UniProt P15823).
T1 construct: rat liver homogenates; from tissue; host or cells: rat liver homogenate
T1 sequence (P15823 1-515): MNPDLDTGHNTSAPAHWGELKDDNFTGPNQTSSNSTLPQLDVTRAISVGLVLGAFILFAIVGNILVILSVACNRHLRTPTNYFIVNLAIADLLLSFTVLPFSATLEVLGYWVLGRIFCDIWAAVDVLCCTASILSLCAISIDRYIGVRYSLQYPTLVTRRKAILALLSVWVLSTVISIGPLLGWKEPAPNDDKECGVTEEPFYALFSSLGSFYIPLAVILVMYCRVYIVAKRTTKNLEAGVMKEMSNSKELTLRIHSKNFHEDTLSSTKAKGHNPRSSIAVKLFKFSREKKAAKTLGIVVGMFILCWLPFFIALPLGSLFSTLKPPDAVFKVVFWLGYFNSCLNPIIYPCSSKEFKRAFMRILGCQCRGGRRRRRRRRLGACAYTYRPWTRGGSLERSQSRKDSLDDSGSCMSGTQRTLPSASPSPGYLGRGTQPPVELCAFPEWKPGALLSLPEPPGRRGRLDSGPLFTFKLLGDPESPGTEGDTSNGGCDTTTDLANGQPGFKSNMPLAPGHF
In words: radioligand binding, [3H]-prazosin, rat liver homogenates. As to the method:
(§1) The compounds were assessed for alpha-adrenergic receptor subtype selectivity by use of radioligand binding techniques as described previously (DeBernardis et.al. J. Med. Chem. 28 1398 (1985)). Affinity for the alpha-1-receptor was assessed using rat liver homogenates and the radioligand [^3 H]-prazosin; whereas for the alpha-2-receptor, rat cerebral cortices and the radioligand [^3 H]-rauwolscine were utilized. Results obtained from the binding studies are shown in Table 1 for a representative sample of compounds disclosed herein.

The next experiment addresses alpha-2-receptor. In words: radioligand binding, [3H]-rauwolscine, rat cerebral cortices. To be noted: for Ki: rat cerebral cortices, [3H]-rauwolscine; for alpha-2-Selectivity Ki alpha-1/Ki alpha-2: ratio Ki alpha-1/Ki alpha-2. On the procedure:
as §1

What is called Ki is a dissociation constant, usually derived from enzyme kinetics or from competition with a known ligand. The low end stands for higher affinity, the high end for lower affinity. As to `COc1ccc2c(c1OC)SCCC2CN(C)CCc1cccs1` (stereo not drawn) [Example 13, 4-((N-Methylamino)methyl-N-(2-(2-thienyl)ethyl))-7,8-dimethoxy thiochroman hydrochloride], the Ki on alpha-1-receptor was determined as 96 nM. For the same molecule, on alpha-2-receptor, the Ki is 3 nM and the “alpha-2-Selectivity Ki alpha-1/Ki alpha-2” value came to 32.
The corresponding values for `COc1ccc2c(c1OC)OCCC2CN(C)CCc1cccs1` (stereo not drawn) [Example 26, 4-((N-Methylamino)methyl-N-(2-(2-thienyl)ethyl))-7,8-dimethoxy chroman hydrochloride] are 10000 nM, 5.8 nM and 1724.
On to `COc1ccc2c(c1OC)OCCC2CN(C)CCc1cccc(F)c1` (stereo not drawn) [Example 25, 4-(N-Methylamino)methyl-N-(2-(m-fluorophenyl)ethyl))-7,8-dimethoxy chroman hydrochloride], for which the Ki on alpha-1-receptor is 550 nM; on alpha-2-receptor, 3 nM. Also, the “alpha-2-Selectivity Ki alpha-1/Ki alpha-2” value in the experiment with alpha-2-receptor is recorded as 183.
Consider `CCN(CCc1cccs1)CC1CCOc2c1ccc(OC)c2C` (stereo not drawn) [Example 28, 4-((N-Ethylamino)methyl-N-(20(2-thienyl)ethyl)-7-methoxy-8-methylchroman hydrochloride], for which the figures for the Ki on alpha-1-receptor and on alpha-2-receptor were 1000 nM and 34 nM, respectively. Besides, the “alpha-2-Selectivity Ki alpha-1/Ki alpha-2” value in the experiment on alpha-2-receptor came to 29.
`CCN(CCc1cccc(Cl)c1)CC1CCOc2cc(OC)ccc21` (stereo not drawn) [Example 6, 4-((N-Ethylamino)methyl-N-(2-(m-chlorophenyl)ethyl))-7-methoxy chroman hydrochloride]: at alpha-1-receptor, the inhibition constant Ki came out at 1140 nM. Besides, at alpha-2-receptor, the Ki stood at 34 nM and the “alpha-2-Selectivity Ki alpha-1/Ki alpha-2” value came to 33.
`COc1ccc2c(c1)OCCC2CN(C)CCc1cccs1` (stereo not drawn) [Example 7, 4-((N-Methylamino)methyl-N-(2-(2-thienyl)ethyl))-7-methoxy chroman hydrochloride]: the Ki worked out at 590 nM at alpha-1-receptor and 10 nM on alpha-2-receptor. Moreover, the “alpha-2-Selectivity Ki alpha-1/Ki alpha-2” value in the experiment on alpha-2-receptor is reported as 59.
`COc1ccc2c(c1)OCCC2CN(C)CCc1cccc(Cl)c1` (stereo not drawn) [Example 4, 4-((N-Methylamino)methyl-N-(2-(m-chlorophenyl)ethyl))-7-methoxy chroman hydrochloride]: on alpha-1-receptor, the Ki amounted to 260 nM. Besides, at alpha-2-receptor, the affinity, expressed as Ki, was 24 nM and the “alpha-2-Selectivity Ki alpha-1/Ki alpha-2” value turned out to be 11.
